Measurements from US11229623B2 (GlaxoSmithKline Intellectual Property (No.2) Limited, priority 2016, dated 2022).

What follows are molecules tested against T1, human TRPV4 (Homo sapiens, UniProt Q9HBA0) (assay: FLIPR assay for hTRPV4 expressed in BHK cells: inhibition of Agonist Compound-induced calcium signal). Conditions: hTRPV4 in BHK/AC9 cells, FLIPR calcium signal, agonist at EC80; reported as range class; read-out: IC50.
T1 construct: expressed in transfected cells; host or cells: BHK/AC9 cells transduced with BacMam virus
T1 sequence (Q9HBA0 whole entry): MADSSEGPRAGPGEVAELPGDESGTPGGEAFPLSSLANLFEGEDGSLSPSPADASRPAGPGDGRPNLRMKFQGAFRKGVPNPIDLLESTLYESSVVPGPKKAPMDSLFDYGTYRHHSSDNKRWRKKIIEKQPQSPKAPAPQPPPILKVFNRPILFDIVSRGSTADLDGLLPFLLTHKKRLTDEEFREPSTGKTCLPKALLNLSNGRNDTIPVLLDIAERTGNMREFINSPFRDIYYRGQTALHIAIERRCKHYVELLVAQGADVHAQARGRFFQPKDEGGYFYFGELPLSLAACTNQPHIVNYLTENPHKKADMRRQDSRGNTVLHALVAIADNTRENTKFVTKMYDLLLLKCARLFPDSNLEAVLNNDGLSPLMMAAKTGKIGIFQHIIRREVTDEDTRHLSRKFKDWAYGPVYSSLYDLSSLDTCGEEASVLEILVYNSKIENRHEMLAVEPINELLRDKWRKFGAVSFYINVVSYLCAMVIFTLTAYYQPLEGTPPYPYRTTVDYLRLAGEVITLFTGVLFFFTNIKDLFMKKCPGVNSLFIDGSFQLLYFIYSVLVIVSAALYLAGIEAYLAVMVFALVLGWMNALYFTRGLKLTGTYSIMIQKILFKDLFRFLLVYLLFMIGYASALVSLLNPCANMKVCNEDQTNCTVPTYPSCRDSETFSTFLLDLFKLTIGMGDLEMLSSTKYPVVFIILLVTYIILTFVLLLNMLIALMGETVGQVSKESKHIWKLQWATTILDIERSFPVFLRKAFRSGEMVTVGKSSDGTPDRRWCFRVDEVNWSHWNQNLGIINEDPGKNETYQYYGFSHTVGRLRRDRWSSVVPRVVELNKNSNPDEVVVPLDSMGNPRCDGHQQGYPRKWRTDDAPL
Type: cell-based
Outline: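 BHK/AC9 cells transduced with BacMam human TRPV4 (MOI 78), plated 15,000 per well and cultured 24 h at 37° C. Loaded with 2 μM Fluo-4 AM plus 500 μM Brilliant Black in HBSS for 1-1.5 h at room temperature in the dark; intracellular calcium signal read by FLIPR fluorescence.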

| Structure (SMILES) | IC50 [nM] |
| --- | --- |
| O=S(=O)(c1ccc(C(F)(F)F)cc1F)N1C[C@H](Oc2ccc3nonc3c2)[C@](O)(CO)C1 [Example 125, (3R,4S)-4-(benzo[c][1,2,5]oxadiazol-5-yloxy)-1-((2-fluoro-4-(trifluoromethyl)phenyl)sulfonyl)-3-(hydroxymethyl)pyrrolidin-3-ol] | 10 to 100 |
| N#Cc1cc(OCC(F)(F)F)c(O[C@H]2CN(S(=O)(=O)c3ccccc3)C[C@@]2(O)CO)cc1F [Example 176, 2-fluoro-4-(((3S,4R)-4-hydroxy-4-(hydroxymethyl)-1-(phenylsulfonyl)pyrrolidin-3-yl)oxy)-5-(2,2,2-trifluoroethoxy) benzonitrile] | 10 to 100 |
| N#Cc1ccc(O[C@H]2CN(S(=O)(=O)c3ccc(C#Cc4ccccc4)cn3)C[C@@]2(O)CO)cc1F [Example 230, 2-fluoro-4-(((3S,4R)-4-hydroxy-4-(hydroxymethyl)-1-((5-(phenylethynyl)pyridin-2-yl)sulfonyl)pyrrolidin-3-yl)oxy)benzonitrile] | 0.1 to 10 |
| N#Cc1ccc(O[C@H]2CN(S(=O)(=O)c3ccc(Cl)cc3C#N)C[C@]23CNC(=O)O3)cc1F [Example 255, 4-(((5R,9S)-7-((4-chloro-2-cyanophenyl)sulfonyl)-2-oxo-1-oxa-3,7-diazaspiro[4.4]nonan-9-yl)oxy)-2-fluorobenzonitrile] | 0.1 to 10 |
| N#Cc1cc(C(F)(F)F)ccc1S(=O)(=O)N1C[C@H](Oc2ccc(F)c(F)c2F)[C@](O)(CO)C1 [Example 28, 2-(((3R,4S)-3-hydroxy-3-(hydroxymethyl)-4-(2,3,4-trifluorophenoxy)pyrrolidin-1-yl)sulfonyl)-5-(trifluoromethyl)benzonitrile] | 10 to 100 |
| N#Cc1ccc(O[C@H]2CN(S(=O)(=O)c3ccc(C(F)(F)F)cc3C#N)C[C@@]2(O)CO)c(F)c1 [Example 9, 2-(((3R,4S)-4-(4-cyano-2-fluorophenoxy)-3-hydroxy-3-(hydroxymethyl)pyrrolidin-1-yl)sulfonyl)-5-(trifluoromethyl)benzonitrile] | 0.1 to 10 |
| C[C@H](O)[C@]1(O)CN(S(=O)(=O)c2cccnc2C#N)C[C@@H]1Oc1ccc(C#N)c(F)c1 [Example 203, 3-(((3R,4S)-4-(4-cyano-3-fluorophenoxy)-3-hydroxy-3-((S)-1-hydroxyethyl)pyrrolidin-1-yl)sulfonyl) picolinonitrile] | 10 to 100 |
| N#Cc1cc(O)c(O[C@H]2CN(S(=O)(=O)c3ccc(C(F)(F)F)cc3C#N)C[C@@]2(O)CO)cc1F [Example 162, 4-(((3S,4R)-1-((2-cyano-4-(trifluoromethyl)phenyl)sulfonyl)-4-hydroxy-4-(hydroxymethyl)pyrrolidin-3-yl)oxy)-2-fluoro-5-hydroxybenzonitrile] | 0.1 to 10 |
| N#Cc1ccc(O[C@H]2CN(S(=O)(=O)c3ccc(C(F)(F)F)cc3C#N)C[C@@]2(O)CO)cc1C(F)(F)F [Example 11, 4-(((3S,4R)-1-((2-cyano-4-(trifluoromethyl)phenyl)sulfonyl)-4-hydroxy-4-(hydroxymethyl)pyrrolidin-3-yl)oxy)-2-(trifluoromethyl)benzonitrile] | 10 to 100 |
| CC(C)COc1cc(C#N)c(F)cc1O[C@H]1CN(S(=O)(=O)c2ccc(C(F)(F)F)nc2)C[C@@]1(O)CO [Example 183, 2-fluoro-4-(((3S,4R)-4-hydroxy-4-(hydroxymethyl)-1-((6-(trifluoromethyl)pyridin-3-yl)sulfonyl)pyrrolidin-3-yl)oxy)-5-isobutoxybenzonitrile] | 10 to 100 |
| O=S(=O)(c1ccc(Cl)cc1Cl)N1C[C@H](Oc2ccc(C(F)(F)F)nc2)[C@](O)(CO)C1 [Example 35, (3R,4S)-1-((2,4-dichlorophenyl)sulfonyl)-3-(hydroxymethyl)-4-((6-(trifluoromethyl)pyridin-3-yl)oxy)pyrrolidin-3-ol] | 10 to 100 |
| N#Cc1ccc(O[C@H]2CN(S(=O)(=O)c3ccc(C(F)(F)F)cc3C#N)C[C@@]2(O)CO)c(OCc2ccccc2)c1 [Example 171, 2-(((3R,4S)-4-(2-(benzyloxy)-4-cyanophenoxy)-3-hydroxy-3-(hydroxymethyl)pyrrolidin-1-yl)sulfonyl)-5-(trifluoromethyl)benzonitrile] | 0.1 to 10 |
| N#Cc1ccc(S(=O)(=O)N2C[C@H](Oc3ccc(C#N)c(F)c3)[C@](O)(CO)C2)cn1 [Example 79, 5-(((3R,4S)-4-(4-cyano-3-fluorophenoxy)-3-hydroxy-3-(hydroxymethyl)pyrrolidin-1-yl)sulfonyl)picolinonitrile] | 10 to 100 |
| N#Cc1cc(C(F)(F)F)ccc1S(=O)(=O)N1C[C@H](Oc2ccc(Cl)c(F)c2)[C@](O)(CO)C1 [Example 30, 2-(((3R,4S)-4-(4-chloro-3-fluorophenoxy)-3-hydroxy-3-(hydroxymethyl)pyrrolidin-1-yl)sulfonyl)-5-(trifluoromethyl)benzonitrile] | 0.1 to 10 |
| N#Cc1ccc(O[C@H]2CN(S(=O)(=O)c3ccc(I)cc3Cl)C[C@@]2(O)CO)cc1F [Example 115, 4-(((3S,4R)-1-((2-chloro-4-iodophenyl)sulfonyl)-4-hydroxy-4-(hydroxymethyl)pyrrolidin-3-yl)oxy)-2-fluorobenzonitrile] | 0.1 to 10 |
| N#Cc1cc(OCC(F)(F)F)c(O[C@H]2CN(S(=O)(=O)c3ccc(Cl)cn3)C[C@]2(O)CO)cc1F [Example 215, 4-(((3S,4S)-1-((5-chloropyridin-2-yl)sulfonyl)-4-hydroxy-4-(hydroxymethyl)pyrrolidin-3-yl)oxy)-2-fluoro-5-(2,2,2-trifluoroethoxy)benzonitrile] | 10 to 100 |
| N#Cc1ccc(S(=O)(=O)N2C[C@H](Oc3ccc(Cl)cc3)[C@](O)(CO)C2)c(Br)c1 [Example 108, 3-bromo-4-(((3R,4S)-4-(4-chlorophenoxy)-3-hydroxy-3-(hydroxymethyl)pyrrolidin-1-yl)sulfonyl)benzonitrile] | 0.1 to 10 |
| N#Cc1ccc(S(=O)(=O)N2C[C@H](Oc3ccc(C#N)c(F)c3)[C@](O)(CO)C2)nc1 [Example 231, 6-(((3R,4S)-4-(4-cyano-3-fluorophenoxy)-3-hydroxy-3-(hydroxymethyl)pyrrolidin-1-yl)sulfonyl)nicotinonitrile] | 10 to 100 |
| C[C@H](N)[C@]1(O)CN(S(=O)(=O)c2ccc(Cl)cn2)C[C@@H]1Oc1ccc(C#N)c(F)c1 [Example 257, 4-(((3S,4R)-4-((S)-1-aminoethyl)-1-((5-chloropyridin-2-yl)sulfonyl)-4-hydroxypyrrolidin-3-yl)oxy)-2-fluorobenzonitrile, 2,2,2-trifluoroacetate] | 10 to 100 |
| CC(C)NC[C@]1(O)CN(S(=O)(=O)c2ccc(C(F)(F)F)cc2C#N)C[C@@H]1Oc1ccc(C#N)c(F)c1 [Example 239, 4-(((3S,4S)-1-((2-cyano-4-(trifluoromethyl)phenyl)sulfonyl)-4-hydroxy-4-((isopropylamino)methyl)pyrrolidin-3-yl)oxy)-2-fluorobenzonitrile, 2,2,2-trifluoroacetate] | 0.1 to 10 |
| N#Cc1ccc(O[C@H]2CN(S(=O)(=O)c3ccc(F)cc3C#N)C[C@]2(O)CO)cc1F [Example 138, 4-(((3S,4S)-1-((2-cyano-4-fluorophenyl)sulfonyl)-4-hydroxy-4-(hydroxymethyl)pyrrolidin-3-yl)oxy)-2-fluorobenzonitrile] | 0.1 to 10 |
| N#Cc1ccc(S(=O)(=O)N2C[C@H](Oc3ccc(C#N)c(F)c3)[C@](O)(CO)C2)c(F)c1 [Example 113, 4-(((3S,4R)-1-((4-cyano-2-fluorophenyl)sulfonyl)-4-hydroxy-4-(hydroxymethyl)pyrrolidin-3-yl)oxy)-2-fluorobenzonitrile] | 0.1 to 10 |
| CC(C)COc1cc(C#N)c(F)cc1O[C@H]1CN(S(=O)(=O)c2ccc(C#N)cc2)C[C@@]1(O)CO [Example 180, 4-(((3S,4R)-1-((4-cyanophenyl)sulfonyl)-4-hydroxy-4-(hydroxymethyl)pyrrolidin-3-yl)oxy)-2-fluoro-5-isobutoxybenzonitrile] | 0.1 to 10 |
| N#Cc1cc(C(F)(F)F)ccc1S(=O)(=O)N1C[C@H](Oc2ccc(C(F)(F)F)cc2)[C@@](O)(CO)C1 [Example 148, 2-(((3S,4S)-3-hydroxy-3-(hydroxymethyl)-4-(4-(trifluoromethyl)phenoxy)pyrrolidin-1-yl)sulfonyl)-5-(trifluoromethyl)benzonitrile] | 10 to 100 |
| N#Cc1ccc(O[C@H]2CN(S(=O)(=O)c3ccc(Cl)c4nonc34)C[C@@]2(O)CO)cc1F [Example 59, 4-(((3S,4R)-1-((7-chlorobenzo[c][1,2,5]oxadiazol-4-yl)sulfonyl)-4-hydroxy-4-(hydroxymethyl)pyrrolidin-3-yl)oxy)-2-fluorobenzonitrile] | 10 to 100 |
| N#Cc1ccc(O[C@H]2CN(S(=O)(=O)c3ccc(C(F)F)cc3)C[C@@]2(O)CO)cc1F [Example 98, 4-(((3S,4R)-1-((4-(difluoromethyl)phenyl)sulfonyl)-4-hydroxy-4-(hydroxymethyl)pyrrolidin-3-yl)oxy)-2-fluorobenzonitrile] | 10 to 100 |
| Cc1nc(C(F)(F)F)c(S(=O)(=O)N2C[C@H](Oc3ccc(C#N)c(F)c3)[C@](O)(CO)C2)s1 [Example 87, 2-fluoro-4-(((3S,4R)-4-hydroxy-4-(hydroxymethyl)-1-((2-methyl-4-(trifluoromethyl)thiazol-5-yl)sulfonyl)pyrrolidin-3-yl)oxy)benzonitrile] | 10 to 100 |
| Cc1nc(C(F)(F)F)ccc1S(=O)(=O)N1C[C@H](Oc2ccc(C#N)c(F)c2)[C@](O)(CO)C1 [Example 83, 2-fluoro-4-(((3S,4R)-4-hydroxy-4-(hydroxymethyl)-1-((2-methyl-6-(trifluoromethyl)pyridin-3-yl)sulfonyl)pyrrolidin-3-yl)oxy)benzonitrile] | 10 to 100 |
| COc1ccc(S(=O)(=O)N2C[C@H](Oc3ccc(C#N)c(F)c3)[C@@](O)(CO)C2)c(C#N)c1 [Example 145, 4-(((3S,4S)-1-((2-cyano-4-methoxyphenyl)sulfonyl)-4-hydroxy-4-(hydroxymethyl)pyrrolidin-3-yl)oxy)-2-fluorobenzonitrile] | 10 to 100 |
